PubChem BioAssay AID248 (DTP/NCI, 2004)
Values joined by “and” are separate entries in the source; they are usually repeats but may differ in a detail not shown here. Equal values may be shown once. Toxic doses and inconclusive results are not listed. Cut-off read from the data, not from the text of the source: active = T/C of 150% or more; inactive = T/C below 125%.

System: L1210 leukemia ip in BDF1 mice, survival T/C
Test: NCI In Vivo Anticancer Drug Screen. Data for tumor model L1210 Leukemia (intraperitoneal) in B6D2F1 (BDF1) mice
Conditions: endpoint: mean survival time, higher = longer survival
Method in brief: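 Survival endpoint. Drug-treated group vs vehicle group, expressed as T divided by C. Tumor passaged by transplantation.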

[1] = dose: 100.0 mg/kg/injection, schedule: Q01DX001 (ip), vehicle: saline
[2] = dose: 200.0 mg/kg/injection, schedule: Q01DX001 (ip), vehicle: saline
[3] = dose: 100.0 mg/kg/injection, schedule: Q01DX009 (ip), vehicle: saline
[4] = dose: 200.0 mg/kg/injection, schedule: Q01DX009 (ip), vehicle: saline
[5] = dose: 400.0 mg/kg/injection, schedule: Q01DX001 (ip), vehicle: saline
[6] = dose: 400.0 mg/kg/injection, schedule: Q01DX009 (ip), vehicle: saline
[7] = dose: 50.0 mg/kg/injection, schedule: Q01DX001 (ip), vehicle: saline
[8] = dose: 100.0 mg/kg/injection, schedule: Q01DX009 (ip), vehicle: Klucel (hydroxypropylcellulose) (HPC)
[9] = dose: 200.0 mg/kg/injection, schedule: Q01DX009 (ip), vehicle: Klucel (hydroxypropylcellulose) (HPC)
[10] = dose: 100.0 mg/kg/injection, schedule: Q04DX003 (ip), vehicle: Klucel (hydroxypropylcellulose) (HPC)
[11] = dose: 200.0 mg/kg/injection, schedule: Q04DX003 (ip), vehicle: Klucel (hydroxypropylcellulose) (HPC)
[12] = dose: 400.0 mg/kg/injection, schedule: Q01DX009 (ip), vehicle: Klucel (hydroxypropylcellulose) (HPC)
[13] = dose: 400.0 mg/kg/injection, schedule: Q04DX003 (ip), vehicle: Klucel (hydroxypropylcellulose) (HPC)

Measured: T/C

C1OC1CN1CCN(CC2CO2)CC1 (stereo not drawn)
active: dose: 12.5 mg/kg/injection, schedule: Q01DX009 (ip), vehicle: saline 164 % of control | dose: 15.0 mg/kg/injection, schedule: Q01DX009 (ip), vehicle: saline 157 % of control | dose: 30.0 mg/kg/injection, schedule: Q01DX009 (ip), vehicle: saline 208 % of control | dose: 32.0 mg/kg/injection, schedule: Q01DX009 (oral), vehicle: saline 153 % of control | dose: 32.0 mg/kg/injection, schedule: Q04DX003 (ip), vehicle: saline 165 % of control | dose: 64.0 mg/kg/injection, schedule: Q01DX009 (oral), vehicle: saline 165 % of control | dose: 64.0 mg/kg/injection, schedule: Q01DX009 (sc), vehicle: saline 160 % of control | [1] 176 % of control | dose: 120.0 mg/kg/injection, schedule: Q01DX001 (ip), vehicle: saline 182 % of control | dose: 180.0 mg/kg/injection, schedule: Q01DX001 (ip), vehicle: saline 168 % of control | dose: 256.0 mg/kg/injection, schedule: Q01DX001 (sc), vehicle: saline 151 % of control
inactive: dose: 1.2 mg/kg/injection, schedule: Q01DX009 (ip), vehicle: saline 101 % of control | dose: 1.8 mg/kg/injection, schedule: Q01DX009 (ip), vehicle: saline 117 % of control | dose: 2.0 mg/kg/injection, schedule: Q03HX008 (ip), vehicle: saline 117 % of control | dose: 2.0 mg/kg/injection, schedule: Q03HX016 (ip), vehicle: saline 102 % of control | dose: 2.0 mg/kg/injection, schedule: Q03HX024 (ip), vehicle: saline 121 % of control | dose: 3.5 mg/kg/injection, schedule: Q01DX009 (ip), vehicle: saline 118 % of control | dose: 4.0 mg/kg/injection, schedule: Q03HX008 (ip), vehicle: saline 114 % of control | dose: 4.0 mg/kg/injection, schedule: Q03HX016 (ip), vehicle: saline 114 % of control | dose: 6.25 mg/kg/injection, schedule: Q01DX009 (ip), vehicle: saline 121 % of control | dose: 8.0 mg/kg/injection, schedule: Q01DX009 (sc), vehicle: saline 101 % of control | dose: 8.0 mg/kg/injection, schedule: Q03HX008 (ip), vehicle: saline 114 % of control | dose: 8.0 mg/kg/injection, schedule: Q03HX016 (ip), vehicle: saline 94 % of control | dose: 16.0 mg/kg/injection, schedule: Q01DX001 (sc), vehicle: saline 106 % of control | dose: 16.0 mg/kg/injection, schedule: Q01DX009 (sc), vehicle: saline 106 % of control | dose: 32.0 mg/kg/injection, schedule: Q01DX001 (oral), vehicle: saline 113 % of control | dose: 32.0 mg/kg/injection, schedule: Q01DX001 (sc), vehicle: saline 98 % of control | dose: 32.0 mg/kg/injection, schedule: Q01DX009 (ip), vehicle: saline 102 % of control | dose: 50.0 mg/kg/injection, schedule: Q01DX009 (ip), vehicle: saline 111 % of control | dose: 60.0 mg/kg/injection, schedule: Q01DX009 (ip), vehicle: saline 92 % of control | dose: 64.0 mg/kg/injection, schedule: Q01DX001 (oral), vehicle: saline 123 % of control | dose: 64.0 mg/kg/injection, schedule: Q01DX001 (sc), vehicle: saline 113 % of control | dose: 128.0 mg/kg/injection, schedule: Q01DX001 (sc), vehicle: saline 116 % of control | [2] 90 % of control

CC12CCC(C3=C1OC(=O)C(c1ccccc1)(c1ccccc1)C3=O)C2(C)C (stereo not drawn)
inactive: [1] 105 % of control | [3] 94 % of control | dose: 100.0 mg/kg/injection, schedule: Q04DX003 (ip), vehicle: saline 103 % of control | [2] 113 % of control | [4] 102 % of control | dose: 200.0 mg/kg/injection, schedule: Q04DX003 (ip), vehicle: saline 97 % of control | [5] 97 % of control | [6] 100 % of control | dose: 400.0 mg/kg/injection, schedule: Q04DX003 (ip), vehicle: saline 103 % of control

O=C(CCCC(=O)N/N=C/c1cc(O)ccc1O)N/N=C\c1cc(O)ccc1O
inactive: [7] 102 % of control | [1] 96 % of control | [2] 90 % of control | [5] 98 % of control

O=C1c2ccccc2CCCC1Br (stereo not drawn)
inactive: dose: 100.0 mg/kg/injection, schedule: Q01DX001 (ip), vehicle: carboxymethylcellulose (CMC) 95 % of control | dose: 200.0 mg/kg/injection, schedule: Q01DX001 (ip), vehicle: carboxymethylcellulose (CMC) 87 % of control | dose: 400.0 mg/kg/injection, schedule: Q01DX001 (ip), vehicle: carboxymethylcellulose (CMC) 92 % of control

O=C(O)CSCCCc1ccccc1
inactive: dose: 50.0 mg/kg/injection, schedule: Q01DX009 (ip), vehicle: saline with Tween-80 101 % of control | dose: 100.0 mg/kg/injection, schedule: Q01DX009 (ip), vehicle: saline with Tween-80 95 % of control | dose: 100.0 mg/kg/injection, schedule: Q04DX003 (ip), vehicle: saline with Tween-80 102 % of control | dose: 200.0 mg/kg/injection, schedule: Q01DX009 (ip), vehicle: saline with Tween-80 101 % of control | dose: 200.0 mg/kg/injection, schedule: Q04DX003 (ip), vehicle: saline with Tween-80 102 % of control | dose: 400.0 mg/kg/injection, schedule: Q04DX003 (ip), vehicle: saline with Tween-80 102 % of control

Cc1ncc(CO)c2c1OC1=CCCCC1=C2
inactive: dose: 100.0 mg/kg/injection, schedule: Q04DX002 (ip), vehicle: saline with Tween-80 95 % of control | dose: 200.0 mg/kg/injection, schedule: Q04DX002 (ip), vehicle: saline with Tween-80 92 % of control

CC1([N+](=O)[O-])COC2(CCCCC2)OC1
inactive: dose: 50.0 mg/kg/injection, schedule: Q01DX009 (ip), vehicle: Klucel (hydroxypropylcellulose) (HPC) 100 % of control | [8] 96 % of control | [9] 91 % of control

O=C(NCCCl)NC1c2ccccc2CCc2ccccc21
inactive: [8] 94 % of control | [10] 106 % of control | [9] 88 % of control | [11] 105 % of control | [12] 98 % of control | [13] 90 % of control

Nc1ccc(C(=O)Nc2ccc(Nc3ccncc3)cc2)cc1
inactive: [8] 112 % of control | [10] 108 % of control | [9] 106 % of control | [11] 103 % of control | [12] 103 % of control | [13] 106 % of control

CCOC(=O)NCC(CCN(C)C)(c1cccc2ccccc12)C(C)C (stereo not drawn)
inactive: [3] 98 % of control | [10] 97 % of control | [4] 107 % of control | [11] 97 % of control

ClCc1nc2ccccc2s1
inactive: [8] 91 % of control | dose: 100.0 mg/kg/injection, schedule: Q04DX002 (ip), vehicle: Klucel (hydroxypropylcellulose) (HPC) 92 % of control | [9] 98 % of control | dose: 200.0 mg/kg/injection, schedule: Q04DX002 (ip), vehicle: Klucel (hydroxypropylcellulose) (HPC) 103 % of control | dose: 400.0 mg/kg/injection, schedule: Q04DX002 (ip), vehicle: Klucel (hydroxypropylcellulose) (HPC) 103 % of control

CCCCCCCCC[As](=O)(O)CCCCCCCCC
inactive: [7] 101 % of control | [1] 98 % of control | [2] 98 % of control | [5] 101 % of control

CCC[CH2][Sn]1([CH2]CCC)[O]C(=O)C2C(C(=O)[O]1)C1(Cl)C(Cl)=C(Cl)C2(Cl)C1(Cl)Cl (stereo not drawn)
inactive: dose: 44.0 mg/kg/injection, schedule: Q01DX001 (ip), vehicle: saline 98 % of control | dose: 45.0 mg/kg/injection, schedule: Q01DX001 (ip), vehicle: saline 97 % of control | dose: 67.0 mg/kg/injection, schedule: Q01DX001 (ip), vehicle: saline 95 % of control and 101 % of control | [1] 98 % of control and 103 % of control | dose: 150.0 mg/kg/injection, schedule: Q01DX001 (ip), vehicle: saline 123 % of control

CC1(C)Oc2c(ccc(O)c2CN2CCCCC2)C2=C1CCCC2
inactive: [1] 89 % of control

COC1=C(CNc2ncnc3nc[nH]c23)CC=CC1
inactive: [3] 95 % of control | [4] 97 % of control | [6] 100 % of control

Cc1cccc([N+](=O)[O-])c1-c1c(C)cccc1[N+](=O)[O-]
inactive: dose: 50.0 mg/kg/injection, schedule: Q01DX001 (ip), vehicle: Klucel (hydroxypropylcellulose) (HPC) 102 % of control | dose: 100.0 mg/kg/injection, schedule: Q01DX001 (ip), vehicle: Klucel (hydroxypropylcellulose) (HPC) 102 % of control | dose: 200.0 mg/kg/injection, schedule: Q01DX001 (ip), vehicle: Klucel (hydroxypropylcellulose) (HPC) 96 % of control
